Among the data in patent publication US20250186456A1, “PYRIMIDINE-FUSED CYCLIC COMPOUND AND PREPARATION METHOD AND USE THEREOF” (Genfleet Therapeutics (Shanghai) Inc., priority 2021, published 2025) are IC50 values, retold here.

Where two headings read alike, the source gives them in different places.

Holding throughout (format): cell-based, human
Test [1] concerns p-ERK in AGS cells (KRAS G12D mutation). Put plainly: Cell p-ERK assay (HTRF, Advance ERK phospho-T202/Y204 kit). The conditions noted are these: read-out: AGS p-ERK IC50. Put shortly:
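AGS cells (endogenous KRAS G12D) seeded at ~20000 cells/well overnight, then treated 3 h with 3.16-fold compound dilutions, 0.1% DMSO final. Lysates assayed for phospho-T202/Y204 ERK by HTRF after 4 h antibody incubation; inhibition vs DMSO and blank, IC50 by four-parameter fit.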

Another test has as its system AGS cells (KRAS G12D). Kind of test: Cell proliferation inhibition assay, 3D, CellTiter-Glo 3D, AGS. The conditions noted are these: AGS 3D sphere model, 5 days incubation. The gist of the method: (§1)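 Spheroids (800 AsPC-1 or 400 AGS cells/well; RPMI-1640 or F-12K with 10% FBS) formed overnight, then were dosed on day 2 with a 3.16-fold series at 0.1% DMSO. After 5 days, viability was read by CellTiter-Glo 3D luminescence, and IC50 came from four-parameter fits of inhibition versus DMSO control and medium blank.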
For orientation: ATP-based viability assays read luminescence as a measure of living cells.

Test [2] relates to AsPC-1 cells (KRAS G12D mutation). Put plainly: Cell proliferation inhibition assay, 3D, CellTiter-Glo 3D, AsPC-1. As to conditions: AsPC-1 3D sphere model, 5 days incubation. The gist of the method: as §1
Setting [3] is: Homo sapiens, AGS cells, 3 hours incubation with compound, HTRF.
Where [4] appears, read: AGS cells, 3 hours incubation with compound, HTRF.

The IC50 is the point on the concentration scale where inhibition reaches its midpoint. As for `C#Cc1c(F)ccc2cccc(-c3nc4c5c(nc(OCC67CCCN6CCC7=CF)nc5c3F)N3C[C@H]5CC[C@H](N5)[C@H]3[C@H](C)O4)c12` (stereo partly drawn) [Example Z611, (5S,5aS,68,9R)-2-(8-ethynyl-7-fluoronaphthalen-1-yl)-1-fluoro-12-((1-(fluoromethylene)tetrahydro-1H-pyrrolizin-7a (5H)-yl)methoxy)-5-methyl-5a,6,7,8,9,10-hexahydro-5H-4-oxa-3,10a,11,13,14-pentaaza-6,9-methanonaphtho[1,8-ab]heptalene], the IC50 in test [1] (setting [3]) was 19.6 nM; in the test with AGS cells (KRAS G12D) (Homo sapiens, 120 h) it was 10.4 nM; in test [2] (Homo sapiens, ASPC1, 120 h), 49.1 nM.
Turning to `C#Cc1cccc2nc(N)cc(-c3nc4c5c(nc(OCC67CCCN6CC(F)(F)C7)nc5c3F)N3C[C@H]5CC[C@H](N5)[C@H]3[C@H](C)O4)c12` (stereo partly drawn) [Example Z726, 4-((5S,5aS,6S,9R)-12-((2,2-difluorotetrahydro-1H-pyrrolizin-7a (5H)-yl)methoxy)-1-fluoro-5-methyl-5a,6,7,8,9,10-hexahydro-5H-4-oxa-3,10a, 11,13,14-pentaaza-6,9-methanonaphtho[1,8-ab]heptalene-2-yl)-5-ethynylquinolin-2-amine], the IC50 amounted to 78.8 nM in test [1] (setting [3]); 133 nM in the test with AGS cells (KRAS G12D) (Homo sapiens, 120 h); 638 nM in test [2] (Homo sapiens, ASPC1, 120 h).
Consider `C#Cc1c(F)ccc2cccc(-c3nc4c5c(nc(OCC67CCCN6CC(=CF)C7)nc5c3F)N3C[C@H]5CC[C@H](N5)[C@H]3[C@H](C)O4)c12` (stereo partly drawn) [Example Z601, (5S,5aS,6S,9R)-2-(8-ethynyl-7-fluoronaphthalen-1-yl)-1-fluoro-12-((2-(fluoromethylene)tetrahydro-1H-pyrrolizin-7a (5H)-yl)methoxy)-5-methyl-5a,6,7,8,9,10-hexahydro-5H-4-oxa-3,10a, 11, 13, 14-pentaaza-6,9-methanonaphtho[1,8-ab]heptalene], for which the half-maximal inhibitory concentration (IC50) in test [1] (setting [3]) came out at 10.5 nM; with AGS cells (KRAS G12D) (Homo sapiens, 120 h), 13.5 nM; in test [2] (Homo sapiens, ASPC1, 120 h), 39 nM.
As for `C#Cc1c(F)ccc2cccc(-c3nc4c5c(nc(OCC67CC(=C)CN6[C@@H]6C[C@@H]6C7)nc5c3F)N3C[C@H]5CC[C@H](N5)[C@H]3[C@H](C)O4)c12` (stereo partly drawn) [Example Z603, (5S,5aS,6S,9R)-2-(8-Ethynyl-7-Fluoronaphthalen-1-Yl)-1-Fluoro-5-Methyl-12-(((1aR,6aR)-4-Methylenehexahydrocyclopropa[b]Pyrrolizin-5a (3H)-Yl)Methoxy)-5a,6,7,8,9,10-Hexahydro-5H-4-Oxa-3,10a,11,13,14-Pentaaza-6,9-Methanonaphtho[1,8-Ab]Heptalene], the 50% inhibitory concentration (IC50) in test [1] (setting [3]) came to 64.1 nM; with AGS cells (KRAS G12D) (Homo sapiens, 120 h), 110 nM; in test [2] (Homo sapiens, ASPC1, 120 h), 217 nM.
On to `C#Cc1c(F)ccc2cccc(-c3nc4c5c(nc(OC[C@@]67CC(=C)CN6CC[C@@H]7OC)nc5c3F)N3C[C@H]5CC[C@H](N5)[C@H]3[C@H](C)O4)c12` (single isomer, unassigned) [Example Z696], for which the IC50 in test [1] (setting [4]) is 72.6 nM; with AGS cells (KRAS G12D) it was 598 nM; in test [2], 694 nM.
On to `C#Cc1c(F)ccc2cccc(-c3nc4c5c(nc(OCC67CC(=C)CN6CCC76CC6)nc5c3F)N3C[C@H]5CC[C@H](N5)[C@H]3[C@H](C)O4)c12` (stereo partly drawn) [Example Z602, (58,5aS,6S,9R)-2-(8-ethynyl-7-fluoronaphthalen-1-yl)-1-fluoro-5-methyl-12-((6′-methylenetetrahydrospiro[cyclopropane-1, 1′-pyrrolizin]-7a′ (5′H)-yl)methoxy)-5a,6,7,8,9,10-hexahydro-5H-4-oxa-3,10a,11,13,14-pentaaza-6,9-methanonaphtho[1,8-ab]heptalene], for which the IC50 in test [1] (setting [4]) was 34.1 nM; with AGS cells (KRAS G12D), 26.5 nM; in test [2] it was 90.4 nM.
Turning to `C#Cc1c(F)ccc2cccc(-c3nc4c5c(nc(OCC67CC(=C)CN6C[C@H](F)C7)nc5c3F)N3C[C@H]5CC[C@H](N5)[C@H]3[C@H](CO)O4)c12` (stereo partly drawn) [Example Z654, ((5R,5aS,6S,9R)-2-(8-ethynyl-7-fluoronaphthalen-1-yl)-1-fluoro-12-(((2R)-2-fluoro-6-methylenetetrahydro-1H-pyrrolizin-7a (5H)-yl)methoxy)-5a,6,7,8,9,10-hexahydro-5H-4-oxa-3,10a,11,13,14-pentaaza-6,9-methanonaphtho[1,8-ab]heptalen-5-yl)methanol], the IC50 in test [1] (setting [3]) stood at 136 nM; in the test on AGS cells (KRAS G12D) (Homo sapiens, 120 h), 726 nM; in test [2] (Homo sapiens, ASPC1, 120 h), 389 nM.
Take `C#Cc1c(F)ccc2cccc(-c3nc4c5c(nc(OCC67CC8(CC8)CN6CC6(CC6)C7)nc5c3F)N3C[C@H]5CC[C@H](N5)[C@H]3[C@H](C)O4)c12` [Example Z628]: the IC50 was determined as 45.5 nM in test [1] (setting [3]); 40 nM in the test with AGS cells (KRAS G12D) (Homo sapiens, 120 h); 144 nM in test [2] (Homo sapiens, ASPC1, 120 h).
For `C#Cc1c(F)ccc2cc(O)cc(-c3nc4c5c(nc(OCC6(CO)CC6)nc5c3F)N3C[C@H]5CC[C@H](N5)[C@H]3[C@H](C)O4)c12` [Example Z708, 5-ethynyl-6-fluoro-4-((5S,5aS,6S,9R)-1-fluoro-12-((1-(hydroxymethyl)cyclopropyl)methoxy)-5-methyl-5a,6,7,8,9,10-hexahydro-5H-4-oxa-3,10a, 11,13,14-pentaaza-6,9-methanonaphtho[1,8-ab]heptalene-2-yl) naphthalen-2-ol], the half-maximal inhibitory concentration (IC50) amounted to 38.5 nM in test [1] (Homo sapiens, AGS, 3 h); 176 nM in the test on AGS cells (KRAS G12D) (Homo sapiens, 120 h); 941 nM in test [2] (Homo sapiens, ASPC1, 120 h).
For `C#Cc1c(F)ccc2cccc(-c3nc4c5c(nc(OC[C@@]67CCCN6C[C@H]6C[C@H]67)nc5c3F)N3C[C@H]5CC[C@H](N5)[C@H]3[C@H](C)O4)c12` (single isomer, unassigned) [Example Z627-2], the IC50 in test [1] (setting [3]) amounted to 59.3 nM; in the test with AGS cells (KRAS G12D) (Homo sapiens, 120 h), 83.4 nM; in test [2] (Homo sapiens, ASPC1, 120 h), 287 nM.
For `C#Cc1c(F)ccc2cccc(-c3nc4c5c(nc(OCC67CC(=C)CN6[C@H]6C[C@H]6C7)nc5c3F)N3C[C@H]5CC[C@H](N5)[C@H]3[C@H](C)O4)c12` (stereo partly drawn) [Example Z604, (5S,5aS,6S,9R)-2-(8-ethynyl-7-fluoronaphthalen-1-yl)-1-fluoro-5-methyl-12-(((1aS,6aS)-4-methylenehexahydrocyclopropa[b]pyrrolizin-5a (3H)-yl)methoxy)-5a,6,7,8,9,10-hexahydro-5H-4-oxa-3,10a, 11, 13,14-pentaaza-6,9-methanonaphtho[1,8-ab]heptalene], the IC50 in test [1] (setting [3]) worked out at 95 nM; in the test with AGS cells (KRAS G12D) (Homo sapiens, 120 h) it was 573 nM; in test [2] (Homo sapiens, ASPC1, 120 h), 468 nM.
In the case of `C#Cc1cccc2cccc(-c3nc4c5c(nc(OCC67CC(=C)CN6CC(=C)C7)nc5c3F)N3C[C@H]5CC[C@H](N5)[C@H]3[C@H](C)O4)c12` [Example Z551, (58,5aS,6S,9R)-12-((2,6-dimethylenetetrahydro-1H-pyrrolizin-7a (5H)-yl)methoxy)-2-(8-ethynylnaphthalen-1-yl)-1-fluoro-5-methyl-5a,6,7,8,9,10-hexahydro-5H-4-oxa-3,10a,11,13,14-pentaaza-6,9-methanonaphtho[1,8-ab]heptalene], the IC50 was found to be 61 nM in test [1] (setting [3]); 45.4 nM in the test with AGS cells (KRAS G12D) (Homo sapiens, 120 h); 170 nM in test [2] (Homo sapiens, ASPC1, 120 h).
As to `C#Cc1cccc2cc(N)cc(-c3nc4c5c(nc(OC[C@]67CCCN6CC(F)(F)C7)nc5c3F)N3C[C@H]5CC[C@H](N5)[C@H]3[C@H](C)O4)c12` [Example Z734, 4-((5S,5aS,6S,9R)-12-(((R)-2,2-difluorotetrahydro-1H-pyrrolizin-7a (5H)-yl)methoxy)-1-fluoro-5-methyl-5a,6,7,8,9,10-hexahydro-5H-4-oxa-3,10a, 11,13, 14-pentaaza-6,9-methanonaphtho[1,8-ab]heptalene-2-yl)-5-ethynylnaphthalen-2-amine], the IC50 in test [1] (setting [3]) was determined as 3.42 nM; in the test with AGS cells (KRAS G12D) (Homo sapiens, 120 h), 17.2 nM; in test [2] (Homo sapiens, ASPC1, 120 h), 12.1 nM.
